Experimental data from ChEMBL document CHEMBL1938267, “Capturing of the free cysteine residue in the ligand-binding site by affinity labeling of the ORL1 nociceptin receptor” (Bioorg Med Chem, 2011).
The source made the active and inactive calls. The rule behind the calls is not given here. Peptide text beside a SMILES is read from it. * marks the point of attachment. Npys = O=[N+]([O-])c1cccnc1S*

How the values were obtained:
[1] = system: COS-7; experiment: Displacement of [3H]nociceptin from rat Galpha-fused ORL1 receptor expressed in african green monkey COS7 cells preincubated with 100 uM N-ethylmaleimide for 90 mins measured after 90 mins; assay type: cell-based
[2] = species on record: Rattus norvegicus; experiment: Agonist activity at rat Galpha-fused ORL1 receptor at 10 uM by [35S]GTPgammaS binding assay relative to nociceptin; assay type: functional
[3] = system: COS-7; experiment: Ratio of NEM EC50 to compound EC50 for binding affinity to rat Galpha-fused ORL1 receptor expressed in african green monkey COS7 cells; assay type: cell-based
[4] = species on record: Rattus norvegicus; experiment: Antagonist activity at rat Galpha-fused ORL1 receptor assessed as reduction of receptor agonist nociceptin-induced [35S]GTPgammaS binding at 10 uM; assay type: functional
[5] = Binding affinity to rat Galpha-fused ORL1 receptor expressed in african green monkey COS7 cells after 90 mins; assay type: cell-based; conditions: cos-7
[6] = species on record: Rattus norvegicus; experiment: Agonist activity at rat Galpha-fused ORL1 receptor by [35S]GTPgammaS binding assay relative to nociceptin; assay type: functional
[7] = system: COS-7; experiment: Displacement of [3H]nociceptin from rat Galpha-fused ORL1 receptor expressed in african green monkey COS7 cells preincubated with 5 uM Cys(Npys)-RYYRIK-NH2 for 90 mins measured after 90 mins; assay type: cell-based
[8] = system: COS-7; experiment: Binding affinity to rat Galpha-fused ORL1 receptor expressed in african green monkey COS7 cells at 5 uM after 90 mins; assay type: cell-based
[9] = Displacement of [3H]nociceptin from rat Galpha-fused ORL1 receptor expressed in african green monkey COS7 cells; assay type: cell-based; conditions: cos-7
[10] = system: COS-7; experiment: Binding affinity to rat Galpha-fused ORL1 receptor expressed in african green monkey COS7 cells at 100 uM after 90 mins; assay type: cell-based

| SMILES | Activity [1] | Activity [2] | Ratio EC50 [3] | Activity [4] | EC50 [5] | Activity [6] | Activity [7] | Activity [8] | IC50 [9] | Activity [10] |
| --- | --- | --- | --- | --- | --- | --- | --- | --- | --- | --- |
| CC[C@H](C)[C@H](NC(=O)[C@H](CCCN=C(N)N)NC(=O)[C@H](Cc1ccc(O)cc1)NC(=O)[C@H](Cc1ccc(O)cc1)NC(=O)[C@H](CCCN=C(N)N)NC(C)=O)C(=O)N[C@@H](CCCCN)C(N)=O | Active | 60% | – | – | – | – | – | – | – | – |
| CC[C@H](C)[C@H](NC(=O)[C@H](CCCNC(=N)N)NC(=O)[C@H](Cc1ccc(O)cc1)NC(=O)[C@H](Cc1ccc(O)cc1)NC(=O)[C@H](CCCNC(=N)N)NC(=O)[C@@H](N)CSSc1ncccc1[N+](=O)[O-])C(=O)N[C@@H](CCCCN)C(N)=O (H-C(Npys)RYYRIK-NH2) | – | 5% | 23 | Active | 1.9 µM | inactive | Active | 60% | 133 nM | – |
| CCN1C(=O)C=CC1=O [N-ETHYLMALEIMIDE] | – | – | – | – | 43.7 µM | – | – | – | – | 65% |
| CC(C)C[C@H](NC(=O)[C@H](CCCCN)NC(=O)[C@H](CCCNC(=N)N)NC(=O)[C@H](C)NC(=O)[C@H](CO)NC(=O)[C@H](CCCCN)NC(=O)[C@H](CCCNC(=N)N)NC(=O)[C@H](C)NC(=O)CNC(=O)[C@@H](NC(=O)[C@H](Cc1ccccc1)NC(=O)CNC(=O)CNC(=O)[C@@H](N)Cc1ccccc1)[C@@H](C)O)C(=O)N[C@@H](C)C(=O)N[C@@H](CC(N)=O)C(=O)N[C@@H](CCC(N)=O)C(=O)O [NOCICEPTIN] | Active | – | – | – | – | – | – | – | 0.52 nM | – |
